# Data: patent US20090209535A1, “6-ETHER/THIOETHER-PURINES AS TOPOISOMERASE II CATALYTIC INHIBITORS AND THEIR USE IN THERAPY” (TOPOTARGET A/S, priority 2005, published 2009)
# Key:
# [1] = system: human SCLC OC—NYH cells; experiment: Alkaline elution assay (DNA breaks); type: cell-based
# Protocol: Alkaline elution assay was performed as described in Kohn et al., 1976 with modifications as described in Sehested et al., 1998. Briefly, to assess the ability of NSC 35866 to protect against etoposide-induced DNA breaks, cells were incubated with increasing concentrations of NSC 35866 for 10 minutes, before 3 μM etoposide was added to the samples. The cells were then co-incubated with 3 μM etoposide along with the same concentrations of NSC 35866 for 60 minutes. Some samples contained no etoposide in order to assess whether NSC 35866 induced DNA breaks by itself. After incubation with drug, cells were lysed and the DNA fragments eluted. DNA in the experimental OC—NYH cells was metabolically labelled by ^14C-thymidine incorporation while DNA in the internal control L1210 cells was metabolically labelled by ^3H-thymidine incorporation.
# FIG. 9 describes the results of studies of the ability of NSC 35866 to antagonise DNA breaks induced by etoposide in human SCLC OC—NYH cells in a dose dependent manner. Alkaline DNA elution was used to detect DNA fragmentation induced by 3 μM etoposide in the presence of increasing concentrations of NSC 35866 as described herein. H202 treated mouse leukemic L1210 cells were used as internal control for DNA fragmentation. The DNA of the experimental OC—NYH cells was ^14C-labelled while the DNA of the L1210 cells was 3H-labelled.
# [2] = biological target: T1, bisdioxopiperazine resistant Y165S mutant human topoisomerase II α (Homo sapiens, UniProt P11388, Y165S); type: biochemical; conditions: FIG. 2-B
# T1 construct: made in house; host or cells: yeast (over-expressing yeast cells)
# Protocol: Topoisomerase II catalytic activity (DNA strand passage activity) was measured by using a filter-based kDNA decatenation assay as described in Jensen et al., 2002. Briefly, 200 ng ^3H labelled kDNA isolated from C. fasciculata was incubated with increasing concentrations of drug in 20 μL reaction buffer containing 10 mM TRIS-HCl pH 7.7, 50 mM NaCl, 50 mM KCl, 5 mM MgCl2, 1 mM EDTA, 15 μg/mL BSA and 1 mM ATP using two units of purified wild-type or Y165S mutant topoisomerase II α for 20 minutes at 37° C. (where one unit of activity is defined as the amount of enzyme required for complete decatenation in the absence of drug). After addition of 5× stop buffer (5% Sarkosyl, 0.0025% bromophenol blue, and 50% glycerol), unprocessed kDNA network and decatenated DNA mini-circles were separated by filtering, and the amount of unprocessed kDNA in each reaction was determined by scintillation counting.
# Inhibition of human topoisomerase II α DNA strand passage activity was assessed by decatenation of tritium-labelled Crithidia fasiculata kDNA using a filter-based assay to separate unprocessed kDNA network from decatenated mini-circles.
# [3] = biological target: T2, human topoisomerase II α-DNA covalent complexes (Homo sapiens, UniProt P11388); experiment: Topoisomerase II DNA cleavage assay (phenol-chloroform extraction, Δcpm); type: biochemical; conditions: 1000 μM
# T2 construct: made in house; host or cells: yeast (over-expressing yeast cells)
# Description: In order to determine the ability of NSC 35866 to increase the level of topoisomerase II-DNA covalent complexes on DNA in vitro, a new and highly sensitive topoisomerase II DNA cleavage assay having a numeric readout was developed. […] The DNA substrate is a 950 bp linear ^3H-labelled DNA synthesized by PCR in the presence of ^3H-dATP. […] The DNA fragment was isolated from unincorporated dNTPs by ethanol precipitation at 0.3 M NaCl, followed by washing in 70% ethanol. The specific activity of the fragment was typically 10,000-20,000 cpm/μg. Before starting the assay, a drug dilution series comprising 10× the final drug concentration was made. Reaction mixtures containing 100 ng of the 950 bp linear ^3H-labelled DNA, 300 ng human topoisomerase II q, topoisomerase II cleavage buffer (10 mM TRIS-HCL pH 7.9, 50 mM NaCl, 50 mM KCl, 5 mM MgCl2, 1 mM EDTA, 15 μg/mL BSA and 1 mM Na2ATP), and increasing concentrations of drug in 50 μL reaction volumes were then incubated 10 minutes at 37° C. A “no topoisomerase II” sample and a “no drug” sample were always included as controls. Next, the cleavable complex was trapped by adding 5 μL 10% SDS. After vigorous vortexing, 45 uL TE buffer, pH=8.0, was added to obtain 100 μL per sample. 100 μL phenol:chloroform:isoamyl alcohol (25:24:1) equilibrated with TE buffer, pH=8.0, was then added, and the samples were vortexed vigorously for 30 seconds. Finally, the samples were centrifuged at 20,000 g for 2 minutes and 90 μL of the upper water phase was used for scintillation counting using 15 mL of Ultima gold scintillation fluid (Packard).
# In order to establish whether NSC 35866 inhibits the DNA strand passage reaction of topoisomerase II by stabilising a covalent reaction intermediate, a new and highly sensitive topoisomerase II DNA cleavage assay having a numeric read-out was developed. This assay is based on the fact that after extraction with phenol-chloroform, protein-bound DNA is removed from the water phase, while naked DNA remains in the water phase. […] Consequently, in reactions containing topoisomerase II and linear DNA, the ability of compounds to remove DNA from the water phase after phenol-chloroform extraction should reflect their potency as topoisomerase II poisons. This assay was first validated by incubating 100 ng of a linear 950 bp PCR DNA fragment with 300 ng of purified human topoisomerase II α in the presence of increasing concentrations of the etoposide and m-AMSA. The DNA fragment was ^3H labelled by performing PCR in the presence of ^3H-dATP. In these experiments, a “no topoisomerase II” sample was always included to determine the level of radioactivity (DNA) retained in the water-phase when no enzyme is present. Within each experiment, the CPM values retained in the water phase in the topoisomerase II reactions were then subtracted from this background CPM value to give Δcpm. Consequently, the Δcpm values of samples with no drug added represent the background level of topoisomerase II-DNA covalent complexes present in the reaction mixture under the assay conditions, while the Δcpm levels in the presence of drugs represent the levels of poison-induced topoisomerase II-DNA covalent complexes.
# [4] = biological target: topoisomerase II α (Homo sapiens, UniProt P11388); experiment: Band depletion assay (extractable topoisomerase II α, western blot); type: cell-based; parameters: OC—NYH cells were exposed to increasing concentrations of NSC 35866 for one hour and total proteins were extracted at 0.3 M NaCl; endogenous in cells; host or cells: human small cell lung cancer OC-NYH cells; conditions: OC—NYH cells, one hour
# Protocol: Band depletion assay was performed essentially as described in Sehested et al., 1998. The amount of extractable topoisomerase II α was detected by the ECL detection method (Amersham, Buckinghamshire, United Kingdom). OC—NYH cells were exposed to increasing concentrations of NSC 35866 for one hour and total proteins were extracted at 0.3 M NaCl. For detection of topoisomerase II α, a polyclonal primary antibody (Bio Trend, Cologne, Germany) was used. Horseradish peroxidase linked anti-rabbit antibody (Amersham, Buckinghamshire, United Kingdom) was used as secondary antibody.
# FIG. 10 describes the results of studies of the ability of NSC 35866 to trap human topoisomerase II α as a non-extractable complex on DNA in a dose dependent manner. The ability of NSC 35866 to stabilise topoisomerase II α as a non-extractable complex on DNA in human SCLC OC—NYH cells was assessed using the band depletion assay as described herein. The amounts of topoisomerase II α was visualised by western blotting using a topoisomerase II α specific primary antibody: Lane 1, no drug; Lane 2, 200 μM ICRF-187; Lane 3, 200 μM NSC 35866; Lane 4, 500 μM NSC 35866; Lane 5, 1000 μM NSC 35866. Band depletion of the topoisomerase II α isoform caused by NSC 35866 was detected in two independent experiments.
# Chain of topoisomerase II α (P11388 whole entry): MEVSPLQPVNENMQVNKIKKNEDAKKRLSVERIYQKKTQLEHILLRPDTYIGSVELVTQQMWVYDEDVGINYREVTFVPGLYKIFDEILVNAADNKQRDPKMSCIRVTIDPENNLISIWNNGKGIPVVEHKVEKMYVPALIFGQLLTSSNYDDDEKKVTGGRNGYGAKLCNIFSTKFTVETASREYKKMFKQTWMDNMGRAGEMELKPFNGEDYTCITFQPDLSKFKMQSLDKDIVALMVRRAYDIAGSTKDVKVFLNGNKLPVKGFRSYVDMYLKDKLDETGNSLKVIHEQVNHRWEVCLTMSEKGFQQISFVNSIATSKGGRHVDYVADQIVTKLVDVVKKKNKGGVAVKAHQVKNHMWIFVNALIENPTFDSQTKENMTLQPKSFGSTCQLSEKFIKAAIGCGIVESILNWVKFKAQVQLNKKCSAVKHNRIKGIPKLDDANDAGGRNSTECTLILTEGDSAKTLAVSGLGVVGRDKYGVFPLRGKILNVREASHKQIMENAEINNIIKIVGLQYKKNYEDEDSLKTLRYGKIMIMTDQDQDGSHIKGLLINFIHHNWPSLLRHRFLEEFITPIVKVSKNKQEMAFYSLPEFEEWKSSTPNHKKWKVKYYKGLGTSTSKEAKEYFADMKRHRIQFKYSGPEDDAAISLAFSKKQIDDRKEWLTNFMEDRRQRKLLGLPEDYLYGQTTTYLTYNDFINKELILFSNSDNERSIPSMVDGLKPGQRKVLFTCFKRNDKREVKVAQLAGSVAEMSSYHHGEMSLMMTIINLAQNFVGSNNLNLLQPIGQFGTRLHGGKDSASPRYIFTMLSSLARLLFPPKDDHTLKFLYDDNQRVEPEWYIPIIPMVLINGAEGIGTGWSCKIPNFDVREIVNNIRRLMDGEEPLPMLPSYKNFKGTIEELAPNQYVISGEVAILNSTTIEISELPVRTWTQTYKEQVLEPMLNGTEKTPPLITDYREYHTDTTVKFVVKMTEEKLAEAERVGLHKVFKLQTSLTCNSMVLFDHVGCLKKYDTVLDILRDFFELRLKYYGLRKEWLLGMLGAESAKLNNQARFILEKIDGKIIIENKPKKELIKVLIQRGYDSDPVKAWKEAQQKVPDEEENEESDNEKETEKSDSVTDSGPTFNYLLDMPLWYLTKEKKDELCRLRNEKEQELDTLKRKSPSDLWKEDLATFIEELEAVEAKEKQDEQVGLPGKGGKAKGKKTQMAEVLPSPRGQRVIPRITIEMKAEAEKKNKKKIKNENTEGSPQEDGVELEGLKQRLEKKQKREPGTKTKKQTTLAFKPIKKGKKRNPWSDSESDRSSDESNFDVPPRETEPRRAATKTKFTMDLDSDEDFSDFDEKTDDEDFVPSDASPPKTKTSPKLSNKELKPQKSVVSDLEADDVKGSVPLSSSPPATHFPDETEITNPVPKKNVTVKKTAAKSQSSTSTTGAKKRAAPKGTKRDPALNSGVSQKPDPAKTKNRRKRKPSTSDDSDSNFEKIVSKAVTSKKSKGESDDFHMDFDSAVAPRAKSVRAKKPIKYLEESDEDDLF
# T1 sequence (P11388 whole entry Y165S): as the sequence (P11388 whole entry) above, with Y165S counted along it
# T2 sequence (P11388 whole entry, one chain of several): as the sequence (P11388 whole entry) above
smiles,measurement,setting,value
"Nc1nc(SCCc2ccccc2)c2nc[nH]c2n1 [NSC 35866, 2-amino-6-(phenylethylthio)-purine]","effect on DNA breaks induced by 3 μM etoposide, in words","[1]; 30 μM, repeated assay",no detectable effect
same,"effect on DNA breaks induced by 3 μM etoposide, in words",[1]; 100 μM,no detectable effect
same,"effect on DNA breaks induced by 3 μM etoposide, in words","[1]; 100 μM, repeated assay",no detectable effect
same,"effect on DNA breaks induced by 3 μM etoposide, in words","[1]; 300 μM, repeated assay",partly antagonised
same,"effect on DNA breaks induced by 3 μM etoposide, in words",[1]; 500 μM,partly antagonised
same,"effect on DNA breaks induced by 3 μM etoposide, in words",[1]; 1000 μM,completely antagonised
same,"DNA breaks induced by the drug alone, in words","[1]; concentrations up to 1000 μM, no etoposide",does not induce detectable levels of DNA breaks
same,"inhibition of catalytic activity of the Y165S protein, in words",[2],capable of doing so
same,"effect on level of topoisomerase II-DNA covalent complexes, in words",[3],no measurable effect
same,"effect on amount of extractable topoisomerase II α, in words",[4]; 200 μM,no effect
same,"effect on amount of extractable topoisomerase II α, in words",[4]; 500 μM,reduced the amount of extractable topoisomerase II
same,"effect on amount of extractable topoisomerase II α, in words",[4]; 1000 μM,reduced the amount of extractable topoisomerase II
